Consider one compound from publication PMC3324139 (2012).

Test [1] deals with 76 mer-DNA aptamer (DNA, aptamer) CGTACGGAATTCGCTAGCCCCCCGGCAGGCCACGGCTTGGGTTGGTCCCACTGCGCGTGGATCCGAGCTCCACGTG
Briefly: competitive enzyme-linked aptamer assay (ELAA). Conditions: sodium phosphate 10 mM, no added NaCl, no Mg2+; pH 7.2, RT; TC-HRP displaced; relative to TC = 100% at 50% B/B0; apparent.

The test system of test [2] is 57 mer-RNA aptamer (RNA, aptamer) GAGCCUAAAACAUACCAGAGAAAUCUGGAGAGGUGAAGAAUACGACCACCUAGGCUC
Kind of test: competitive enzyme-linked aptamer assay (ELAA). The note with it: sodium phosphate 10 mM, no added NaCl, no Mg2+; pH 7.2, RT; TC-HRP displaced; relative to TC = 100% at 50% B/B0; apparent.

With `CN(C)[C@@H]1C(=O)C(C(N)=O)=C(O)[C@@]2(O)C(=O)C3=C(O)c4c(O)cccc4[C@@](C)(O)[C@H]3[C@H](O)[C@@H]12`, the Cross-reactivity in test [1] is recorded as 129.7%; in test [2], 35.3%.
